# Laboratory results as given in patent US10859565B2, “High throughput 3D assay for immune cell and drug homing, migration and tumor cytotoxicity” (Corning Incorporated, priority 2017, dated 2020).
# Columns and labels:
# Assay type in all cases: cell-based
# A549/GFP tumor cells = test: NK induced cytotoxicity of A549/GFP tumor cells cultured in 3D; conditions: NK cells exposed to SDF-1α without PGE2; 24 hours
# Protocol: (§1) A549/GFP Cells (Cell Biolabs, Inc. Cat. No. AKR-209), were seeded into 96 well spheroid microplates (Corning Cat. No. 4515) at 2,000 cells per well in Iscove's Modification of DMEM (IMDM) (Corning Cat. No. 10-016-CM) supplemented with 10% fetal bovine serum (FBS) (Corning Cat. No. 35-010-CV). The next day, medium was replaced with […] IMDM 10% FBS containing 30 ng/mL of Human SDF-1 alpha (SDF-1α)/CXCL12 (Shenandoah Biotechnology Inc™ Cat. No. 100-20) or vehicle control. NK92-MI cells were stained for one hour with 80 μM CellTracker™ Blue CMHC Dye (Molecular Probes™ Cat. No. C2110) while simultaneously being treated with 2 μg/mL prostaglandin E2 (PGE2) (Tocris Cat. No. 2296) or vehicle control in IMDM without serum for an hour. NK-92MI cells were then re-suspended in serum free IMDM and seeded into the apical chamber of the inserts at 50,000 cells/insert. After 24 hours, inserts were removed and spheroid microplates were processed for flow cytometry. […] Cells were then analyzed via flow cytometry utilizing the Miltenyi Biotec MacsQuant®.
# (§2) NK-92MI migration and tumoricidal activity of A549/GFP cells was assessed utilizing the commercially available Corning HTS 96 Transwell inserts with the Corning 96 well spheroid microplate, as shown in FIG. 4 and FIG. 5. […]
# NK-92MI cells = test: NK-92MI (NK) cell migration through HTS Transwell towards A549/GFP 3D tumor spheroids, flow cytometry; conditions: 24 hours
# Protocol: as §1, §2
# LN229 spheroids = test: Cytotoxicity of LN229 spheroids after direct culture with compounds; conditions: 48 hours of direct culture; N=12 wells per concentration
compound,measurement,setting,value
SDF-1α,viability of A549/GFP tumor cells (tumoricidal activity of NK cells),A549/GFP tumor cells,lowest viability
same,NK migration,NK-92MI cells; 30 ng/mL SDF-1α present with the tumor spheroid in the spheroid microplate,significantly increased
"CCCCC[C@H](O)/C=C/[C@H]1[C@H](O)CC(=O)[C@@H]1C/C=C\CCCC(=O)O [PGE2, prostaglandin E2]",NK migration,NK-92MI cells; NK cells exposed to 2 μg/mL PGE2 for an hour,significantly decreased
COc1cc(/C=C/C(=O)N2CCC=CC2=O)cc(OC)c1OC [Piperlongumine],cytotoxicity of LN229 spheroids,LN229 spheroids,dose dependent cytotoxicity
